From PubChem BioAssay (NCI)
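Values below derive from 48-hour exposures of cells grown in 96-well plates, with endpoints linearly interpolated between the two concentrations bracketing the appropriate inhibition level. TGI marks complete inhibition of growth.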 Where a SMILES comes first, the peptide text is derived from it. Bridges are numbered along the chain shown (N, C = ends). [ ]: non-standard residue; d: D form. Aib = CC(C)(N)C(=O)O; βAla = NCCC(=O)O

Tests used:
Assay in all cases: inhibition of tumour cell growth, NCI panel, 48 h
[1] = system: HL-60(TB) leukemia
[2] = system: HOP-62 NSCLC
[3] = system: TK-10 renal
[4] = system: MDA-MB-231 breast
[5] = system: T-47D breast
[6] = system: COLO 205 colon
[7] = system: EKVX NSCLC
[8] = system: U251 CNS
[9] = system: HS 578T breast
[10] = system: NCI-H460 lung
[11] = system: ACHN renal
[12] = system: UACC-62 melanoma
[13] = system: SK-MEL-5 melanoma
[14] = system: CCRF-CEM leukemia
[15] = system: NCI-H522 lung
[16] = system: NCI-H23 lung
[17] = system: OVCAR-3 ovarian

Row | SMILES | TGI [1] | TGI [2] | TGI [3] | TGI [4] | TGI [5] | TGI [6] | TGI [7] | TGI [8] | TGI [9] | TGI [10] | TGI [11] | TGI [12] | TGI [13] | TGI [14] | TGI [15] | TGI [16] | TGI [17]
1 | CC(=O)OC[C@H]1CN(OC(C)=O)C[C@@H](n2cc(C)c(=O)[nH]c2=O)O1 | > 100 µM | > 100 µM | > 100 µM | > 100 µM | > 100 µM | > 100 µM | > 100 µM | > 100 µM | > 100 µM | > 100 µM | > 100 µM | > 100 µM | > 100 µM |  |  |  | 
2 | CC1(C)NC(=O)C(NC(=O)C(N)CC(=O)O)CCCCNC(=O)CCNC1=O (centres undefined) (H-DK[Aib][βAla]; lactam 2-C; configuration not given here) |  | > 100 µM | > 100 µM | > 100 µM | > 100 µM | > 100 µM | > 100 µM | > 100 µM | > 100 µM | > 100 µM | > 100 µM | > 100 µM | > 100 µM | > 100 µM | > 100 µM | > 100 µM | > 100 µM
3 | Cc1ccc2c(c1)C(=C(C#N)C#N)CCCS2(=O)=O | > 100 µM | > 100 µM | > 100 µM | > 100 µM | > 100 µM | > 100 µM | > 100 µM | > 100 µM | > 100 µM | > 100 µM | > 100 µM | > 100 µM |  | > 100 µM |  | > 100 µM | > 100 µM
4 | CO/C=C/C=C(\C#N)C(=O)OC |  | > 100 µM | > 100 µM | > 100 µM | > 100 µM | > 100 µM | > 100 µM | > 100 µM | > 100 µM | > 100 µM | > 100 µM | > 100 µM | > 100 µM | > 100 µM | > 100 µM | > 100 µM | > 100 µM
5 | COc1cc(OC)cc(OCc2nc3cc(C(F)(F)F)ccc3nc2-c2ccccc2)c1 | > 100 µM | > 100 µM | > 100 µM | > 100 µM | > 100 µM | > 100 µM | > 100 µM | > 100 µM | > 100 µM | > 100 µM | > 100 µM | > 100 µM |  | > 100 µM | > 100 µM | > 100 µM | > 100 µM
6 | CC1CC(N)=C(C#N)C1(C#N)C#N (centres undefined) | > 100 µM |  | > 100 µM | > 100 µM | > 100 µM | > 100 µM | > 100 µM | > 100 µM | > 100 µM |  | > 100 µM | > 100 µM |  |  | > 100 µM | > 100 µM | 
7 | CCN1CCC(O)(c2ccc(Oc3ccc(Cl)cc3)cc2)C(C(=O)c2ccc(Oc3ccc(Cl)cc3)cc2)C1 (centres undefined) | 4.46 µM | 21.3 µM | 23 µM | 29.4 µM | 36.6 µM | 27.4 µM | 34.5 µM |  | 58.5 µM | 14.9 µM | 28.2 µM | 24.8 µM | 24.7 µM | 20.9 µM | 12 µM | 25.7 µM | 
8 | N#CC(c1ccccc1)N(CCCCCCN(C(=O)c1ccccc1)C(C#N)c1ccccc1)C(=O)c1ccccc1 (centres undefined) | > 100 µM |  | 62.6 µM | > 100 µM | > 100 µM | 39.8 µM | > 100 µM | > 100 µM | 83.6 µM | 84.2 µM | > 100 µM | 77.7 µM | 32.9 µM | > 100 µM |  | 73.8 µM | > 100 µM
9 | COc1cccc(/C=N/n2c(Cc3ccccc3)n[nH]c2=O)c1 |  | > 100 µM | > 100 µM | > 100 µM | > 100 µM | > 100 µM | > 100 µM | > 100 µM | 50 µM | > 100 µM | > 100 µM | > 100 µM | > 100 µM | > 100 µM | > 100 µM | > 100 µM | > 100 µM
10 | CCOC1OC(COC(=O)C(C)(C)C)C(O)CC1n1cc(C)c(=O)[nH]c1=O (centres undefined) |  |  | > 100 µM | > 100 µM | > 100 µM | > 100 µM | > 100 µM | > 100 µM | > 100 µM | > 100 µM | > 100 µM | > 100 µM | > 100 µM | > 100 µM | > 100 µM | > 100 µM | > 100 µM
11 | N#CC12C(=O)N3C(=NC(c4ccco4)NC3c3ccco3)C1(C#N)C(c1ccco1)NC1=C2CCCC1 (centres undefined) | > 100 µM | > 100 µM | > 100 µM | > 100 µM | > 100 µM | > 100 µM | > 100 µM | > 100 µM | > 100 µM | > 100 µM | > 100 µM | > 100 µM | > 100 µM |  | > 100 µM | > 100 µM | 
